Source: article PMC10989772 (mLife, 2022)

Assays:
Larg1 (Lpg0081) = Larg1 (Lpg0081) (Legionella pneumophila, UniProt Q5ZZD0)
[1] = target: Larg1 (lpg0081, 16–428aa) (Legionella pneumophila, UniProt Q5ZZD0)
Chain of Larg1 (lpg0081, 16–428aa) (Q5ZZD0 16-428 limits assumed): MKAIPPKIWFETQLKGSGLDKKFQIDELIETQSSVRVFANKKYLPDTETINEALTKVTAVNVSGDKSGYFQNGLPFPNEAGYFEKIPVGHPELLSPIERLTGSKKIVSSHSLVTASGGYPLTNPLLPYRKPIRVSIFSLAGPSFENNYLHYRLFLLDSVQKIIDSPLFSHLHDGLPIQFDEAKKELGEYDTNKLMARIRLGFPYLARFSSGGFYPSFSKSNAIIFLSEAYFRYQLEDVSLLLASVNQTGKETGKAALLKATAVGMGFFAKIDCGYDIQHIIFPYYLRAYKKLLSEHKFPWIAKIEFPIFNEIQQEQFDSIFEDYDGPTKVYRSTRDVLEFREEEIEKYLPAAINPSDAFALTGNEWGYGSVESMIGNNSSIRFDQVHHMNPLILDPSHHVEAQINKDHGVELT

Chain of Larg1 (Lpg0081) (Q5ZZD0 1-441 limits assumed): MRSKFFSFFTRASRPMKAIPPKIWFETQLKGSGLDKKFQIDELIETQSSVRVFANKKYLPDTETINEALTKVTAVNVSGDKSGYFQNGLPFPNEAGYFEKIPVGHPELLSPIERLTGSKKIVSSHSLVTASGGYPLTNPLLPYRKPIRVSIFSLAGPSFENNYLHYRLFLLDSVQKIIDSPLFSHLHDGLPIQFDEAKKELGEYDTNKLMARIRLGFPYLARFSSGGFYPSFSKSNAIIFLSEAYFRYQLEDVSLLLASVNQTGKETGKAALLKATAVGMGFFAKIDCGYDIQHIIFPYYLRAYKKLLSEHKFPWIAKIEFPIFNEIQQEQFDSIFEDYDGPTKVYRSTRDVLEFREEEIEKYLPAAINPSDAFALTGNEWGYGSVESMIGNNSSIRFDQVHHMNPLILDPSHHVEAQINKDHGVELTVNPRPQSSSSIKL

Nc1ncnc2c1ncn2[C@@H]1O[C@H](COP(=O)(O)OP(=O)(O)OC[C@H]2OC(O)[C@H](O)[C@@H]2O)[C@@H](O)[C@H]1O (some centres unmarked) [ADPR]
Kd (Larg1 (Lpg0081)): 3.87 µM | X-ray crystal structure, 2.32 Å [1]: to determine the structure of the Larg1‐ADPR complex (PDB:7W3S)
